Two compounds from PMC9108603, “Microbial Metabolite Inspired β‐Peptide Polymers Displaying Potent and Selective Antifungal Activity” (Advanced Science, 2022) can be followed below.

In brackets after ≈: the same amount, converted by molar mass. Like-named read-outs stand apart in the source and are kept apart here.

The subject of one assay is C. neoformans. Kind of assay: MIC assay (in vitro antifungal assay). Format: cell-based. Conditions: Cryptococcus neoformans, 48 h. As for the experimental part: In vitro antifungal assays. The MIC assays for C. albicans (K1, SC5314, Gu5, ATCC90028, R01, R02, R03 and R04 strains) and C. neoformans (H99, MYA737 and JEC21 strains) were conducted according to a previously described protocol. The cultured fungal cells were collected at 2.5 × 10^3 CFU/mL in RPMI 1640 medium to give the working suspension. Two- […]
plate to give 50 µL compound solution in each well. Then 50 µL of the cell suspension was added to each well. Wells containing cells in RPMI without any polymer or antifungal drug were used as drug-free controls, and wells containing RPMI medium only were used as cell-free controls. The plate was gently stirred for 10 seconds and then incubated at 30 °C. After C. albicans and C. neoformans cells were incubated for 24 h and 48 h, respectively, fungal cell growth was checked visually. […]

Assay [1] deals with endothelial cells (HUVEC). The assay can be described thus: Cytotoxicity, MTT assay. Format: cell-based, human. Particulars: Homo sapiens, HUVEC, 24 h, 37 °C, 800 to 1.6 μg/mL, 50% cell viability. As for the experimental part: (§1) Cytotoxicity assay. Cytotoxicity tests were performed on NIH 3T3 fibroblast cells, endothelial cells (HUVEC), macrophage (RAW264.7), liver cells (LO2), kidney cells (COS7) and enterocyte (NCM-460) using MTT assay. Cells were cultured in DMEM supplemented with 10% FBS, 5% penicillin, 2 mM L-glutamine and incubated at 37 °C in 5% CO 2. Cells were harvested and seeded onto 96-well plates at a density of 1.0 × 10^4 cells per well and incubated for 24 h. On each plate, wells containing growth medium only and cells in growth medium without any antifungal agent were used as the negative and positive control, […]
concentrations ranging from 800 to 1.6 μg/mL. Medium in each cell-containing well was replaced with 100 μL of the corresponding polymer solution, and the plates were incubated at 37 °C for 24 h. Then, the solution in each well was switched to 100 µL MTT solution (1 mg/mL) and the plate was incubated in the dark at 37 °C for 4 h. […] Then 85 µL of the supernatant from each well was transferred to the corresponding well in a new plate, followed by absorbance measurement at 570 nm on a plate reader. […] The percentage of cell viability in each test well, relative to the positive control (which defines 100%) w as calculated from [% fibroblast growth = (A polymer – Ablank)/(Acontrol – A blank) × 100]. […]
A general note: Tetrazolium dyes change colour on reduction, which living cells bring about.

Another assay deals with NIH 3T3 fibroblast cells. Kind of assay: Cytotoxicity, MTT assay. Format: cell-based. Particulars: Mus musculus, NIH3T3, 24 h, 37 °C, 800 to 1.6 μg/mL, 50% cell viability. As for the experimental part:
as §1
(§2) concentrations ranging from 800 to 1.6 μg/mL. Medium in each cell-containing well was replaced with 100 μL of the corresponding polymer solution, and the plates were incubated at 37 °C for 24 h. Then, the solution in each well was switched to 100 µL MTT solution (1 mg/mL) and the plate was incubated in the dark at 37 °C for 4 h. After centrifuge (to prevent the possible loss of formazan crystals) and removal of the supernatant, 100 μL DMSO was added to each well to dissolve the formed formazan under stirred for 20 min. Then 85 µL of the supernatant from each well was transferred to the corresponding well in a new plate, followed by absorbance measurement at 570 nm on a plate reader. Each antifungal agent was tested in triplicate in each assay, and the experiment was conducted at least twice on a different day. The percentage of cell viability in each test well, relative to the positive control (which defines 100%) w as calculated from [% fibroblast growth = (A polymer – Ablank)/(Acontrol – A blank) × 100]. The IC 50 value is the minimum concentration to inhibit 50% of fibroblast cell growth. All measurements were performed with three replicates.

A further assay concerns macrophage (RAW264.7). The assay can be described thus: Cytotoxicity, MTT assay. Format: cell-based. Conditions: Mus musculus, 24 h, 37 °C, 800 to 1.6 μg/mL, 50% cell viability. As for the experimental part:
as §1, §2

The subject of a further assay is C. albicans (R02 strain). The assay can be described thus: microbe, parasite or virus in culture. Particulars: C. albicans R02; 0.5 × MIC of PDAP20 or 0.5 × MIC50 of fluconazole; 30 passages; duplicates. Format: cell-based, Candida albicans. As for the experimental part:
Drug resistance studies. Drug resistance was induced by treating the C. albicans (R02 strain) repeatedly with antifungal agents. […]
albicans were tested for 30 passages of growth, which is long enough and adopted by many studies. C. albicans exposed to the 1/2 MIC concentration at the particular passage were re-grown to a logarithmic growth phrase and re-used for the subsequent passage’s MIC measurement for the same antifungal agent. Drug-resistant behavior of C. albicans was evaluated by recording the changes in the MIC compared to the original passage. All measurements were performed in duplicates. […]

A further assay has as its system C. albicans K1 strain. Kind of assay: Kill kinetics assay. Conditions: 2 × MFC, C. albicans K1, RPMI 1640, 30 °C, CFU on YPD agar, duplicates. Format: cell-based, Candida albicans. As for the experimental part:
Kill kinetics assay. A culture of C. albicans K1 strain was collected at 2.5 × 10^3 CFU/mL or 6.0 × 10^6 CFU/mL in RPMI 1640 medium to give the working suspension. […]
solution was added to 0.5 mL of the above fungal suspension in each well of a 24-well plate to achieve 2 × MFC of polymer concentration. The fungal suspensions were incubated at 30 °C. At desired time points, each suspension was homogeneously mixed and 30 µL of each

The next assay concerns C. albicans (K1 strain). The assay can be described thus: Killing efficiency under energy depletion. Format: cell-based, Candida albicans. Conditions: 2 × MFC (50 μg/mL), colony count, n = 3. As for the experimental part: Energy depletion analysis. For energy depletion experiments, cell suspension of C. albicans (K1 strain) at 3.0 × 10^6 CFU/mL was pretreated with RPMI containing 5 mM NaN 3 for 1 h. For antifungal efficiency assay, a fresh cell suspension pretreated or non-pretreated with NaN 3 were incubated with 50 μg/mL PDAP 20 or without an antifungal agent (as energy depletion control) for 24 h. The fresh cell suspension without antifungal agents before and after incubation with NaN 3 for 24 h were used as the controls, respectively. The suspensions were diluted and plated on YPD agar. The plates were incubated at 30 °C for 24 h and colony amounts were counted. The cell viability after incubation at 4 °C with 50 μg/mL PDAP 20 or without an antifungal agent (as positive control) was measured using the same method.
For the confocal assay, a fresh cell suspension pretreated or non-pretreated with NaN 3 was incubated with 50 μg/mL CPM-PDAP 20 for 24 h, respectively. […]
For flow cytometry experiment, a fresh cell suspension pretreated or non-pretreated with NaN 3 was incubated with 50 μg/mL CPM-PDAP 20 for 1 h and 2 h, respectively. Fungal cells were washed by PBS to remove polymers, and 5.0 × 10^4 cells were counted and anaysized. The polymer uptake was calculated by flow cytometry (Backman). Furthermore, cell suspensions were incubated with 10 μg/mL PI for 10 min for calculated PI uptake. […]

`C[C@@H]1[C@H](O)[C@@H](C)/C=C/C=C/C=C/C=C/C=C/C=C/C=C/[C@H](O[C@@H]2O[C@H](C)[C@@H](O)[C@H](N)[C@@H]2O)C[C@@H]2O[C@](O)(C[C@@H](O)C[C@@H](O)[C@H](O)CC[C@@H](O)C[C@@H](O)CC(=O)O[C@H]1C)C[C@H](O)[C@H]2C(=O)O` [AmpB, amphotericin B]: the minimal inhibitory concentration (MIC) with C. neoformans (read-out: MIC C. neoformans H99), in the assay with C. neoformans (read-out: MIC C. neoformans JEC21) and in the assay with C. neoformans (read-out: MIC C. neoformans MYA737) was 1.6 µg/mL (≈ 1.73 µM) in each case. Moreover, the half-inhibitory concentration (IC50) (in general, the concentration needed to halve the response being measured) in assay [1] is 8.8 µg/mL (≈ 9.52 µM); in the assay on NIH 3T3 fibroblast cells, 1.6 µg/mL (≈ 1.73 µM); with macrophage (RAW264.7) it was 128 µg/mL (≈ 139 µM).

As to poly(DL‐diaminopropionic acid) [PDAP20], the “Development of drug resistance on continuous treatment” value with C. albicans (R02 strain) is given as “didn't acquire resistance”. In the assay with C. albicans K1 strain, the “Time to completely kill the fungi (time‐kill kinetics)” value is “several hours”. Besides, the “Fungal cells killed under energy depletion, NaN3” value with C. albicans (K1 strain) (5 × 10^−3 M NaN3, 3.0 × 10^6 CFU/mL, 24 h) is listed as “about 88%”. In addition, the “Fungal cells killed under energy depletion, 4°C” value with C. albicans (K1 strain) (at 4°C) is given as “about 88%”.
